According to the NIST ThermoML archive (doi:10.1021/je400709f):

Test: excess molar enthalpy (molar enthalpy of mixing); xn = mol fraction of the nth substance listed
Settings: 298.15 K, 101 kPa, Liquid, Calvet calorimetry

CCCCCCCC[n+]1ccn(C)c1.F[B-](F)(F)F [1-methyl-3-octylimidazolium tetrafluoroborate] + CCCCO
Settings | excess molar enthalpy [kcal/mol]
x1 = 0.191 | 0.349
x1 = 0.195 | 0.355
x1 = 0.2 | 0.362
x1 = 0.204 | 0.369
x1 = 0.209 | 0.376
x1 = 0.214 | 0.384
x1 = 0.219 | 0.391
x1 = 0.223 | 0.397
x1 = 0.228 | 0.402
x1 = 0.233 | 0.407
x1 = 0.238 | 0.413
x1 = 0.243 | 0.419
x1 = 0.248 | 0.425
x1 = 0.254 | 0.431
x1 = 0.259 | 0.438
x1 = 0.266 | 0.446
x1 = 0.272 | 0.453
x1 = 0.279 | 0.461
x1 = 0.286 | 0.469
x1 = 0.293 | 0.48
x1 = 0.301 | 0.492
x1 = 0.309 | 0.504
x1 = 0.318 | 0.516
x1 = 0.328 | 0.528
x1 = 0.337 | 0.541
x1 = 0.348 | 0.554
x1 = 0.359 | 0.566
x1 = 0.371 | 0.577
x1 = 0.383 | 0.586
x1 = 0.392 | 0.593
x1 = 0.4 | 0.599
x1 = 0.41 | 0.605
x1 = 0.419 | 0.608
x1 = 0.429 | 0.611
x1 = 0.44 | 0.611
x1 = 0.451 | 0.611
x1 = 0.462 | 0.608
x1 = 0.474 | 0.605
x1 = 0.487 | 0.6
x1 = 0.501 | 0.596
x1 = 0.515 | 0.589
x1 = 0.53 | 0.582
x1 = 0.546 | 0.571
x1 = 0.563 | 0.56
x1 = 0.582 | 0.545
x1 = 0.601 | 0.531
x1 = 0.622 | 0.511
x1 = 0.644 | 0.49
x1 = 0.653 | 0.482
x1 = 0.663 | 0.474
x1 = 0.673 | 0.464
x1 = 0.683 | 0.455
x1 = 0.693 | 0.443
x1 = 0.704 | 0.429
x1 = 0.715 | 0.417
x1 = 0.727 | 0.405
x1 = 0.739 | 0.392
x1 = 0.751 | 0.378
x1 = 0.764 | 0.363
x1 = 0.777 | 0.348
x1 = 0.79 | 0.331
x1 = 0.804 | 0.313
x1 = 0.819 | 0.294
x1 = 0.834 | 0.275
x1 = 0.85 | 0.254
x1 = 0.866 | 0.231
x1 = 0.883 | 0.208
x1 = 0.9 | 0.18
x1 = 0.919 | 0.149
x1 = 0.938 | 0.114
x1 = 0.958 | 0.0796
x1 = 0.978 | 0.0411

CCCCCCCC[n+]1ccn(C)c1.F[B-](F)(F)F [1-methyl-3-octylimidazolium tetrafluoroborate] + CCCO
Settings | excess molar enthalpy [kcal/mol]
x1 = 0.136 | 0.302
x1 = 0.138 | 0.306
x1 = 0.141 | 0.311
x1 = 0.144 | 0.317
x1 = 0.146 | 0.322
x1 = 0.149 | 0.327
x1 = 0.152 | 0.333
x1 = 0.156 | 0.339
x1 = 0.159 | 0.345
x1 = 0.163 | 0.352
x1 = 0.166 | 0.358
x1 = 0.169 | 0.363
x1 = 0.173 | 0.368
x1 = 0.176 | 0.374
x1 = 0.179 | 0.38
x1 = 0.183 | 0.385
x1 = 0.187 | 0.391
x1 = 0.19 | 0.397
x1 = 0.194 | 0.404
x1 = 0.199 | 0.411
x1 = 0.203 | 0.419
x1 = 0.208 | 0.426
x1 = 0.212 | 0.435
x1 = 0.217 | 0.443
x1 = 0.223 | 0.451
x1 = 0.228 | 0.46
x1 = 0.234 | 0.469
x1 = 0.24 | 0.479
x1 = 0.247 | 0.489
x1 = 0.253 | 0.5
x1 = 0.261 | 0.511
x1 = 0.268 | 0.523
x1 = 0.276 | 0.534
x1 = 0.285 | 0.546
x1 = 0.29 | 0.554
x1 = 0.296 | 0.562
x1 = 0.302 | 0.57
x1 = 0.309 | 0.577
x1 = 0.315 | 0.585
x1 = 0.322 | 0.592
x1 = 0.329 | 0.6
x1 = 0.337 | 0.607
x1 = 0.345 | 0.614
x1 = 0.353 | 0.62
x1 = 0.362 | 0.624
x1 = 0.371 | 0.629
x1 = 0.381 | 0.632
x1 = 0.391 | 0.634
x1 = 0.401 | 0.635
x1 = 0.413 | 0.635
x1 = 0.425 | 0.636
x1 = 0.437 | 0.635
x1 = 0.451 | 0.634
x1 = 0.465 | 0.632
x1 = 0.48 | 0.628
x1 = 0.496 | 0.623
x1 = 0.513 | 0.617
x1 = 0.532 | 0.61
x1 = 0.552 | 0.598
x1 = 0.56 | 0.592
x1 = 0.569 | 0.586
x1 = 0.578 | 0.579
x1 = 0.587 | 0.571
x1 = 0.596 | 0.563
x1 = 0.606 | 0.555
x1 = 0.616 | 0.545
x1 = 0.627 | 0.535
x1 = 0.638 | 0.525
x1 = 0.649 | 0.513
x1 = 0.66 | 0.501
x1 = 0.672 | 0.488
x1 = 0.685 | 0.474
x1 = 0.698 | 0.458
x1 = 0.711 | 0.443
x1 = 0.725 | 0.425
x1 = 0.74 | 0.407
x1 = 0.755 | 0.387
x1 = 0.771 | 0.366
x1 = 0.787 | 0.343
x1 = 0.804 | 0.319
x1 = 0.822 | 0.293
x1 = 0.841 | 0.265
x1 = 0.86 | 0.235
x1 = 0.881 | 0.202
x1 = 0.902 | 0.168
x1 = 0.925 | 0.131
x1 = 0.949 | 0.0915
x1 = 0.974 | 0.0476

CCCCCCCC[n+]1ccn(C)c1.F[B-](F)(F)F [1-methyl-3-octylimidazolium tetrafluoroborate] + CCO
Settings | excess molar enthalpy [kcal/mol]
x1 = 0.135 | 0.382
x1 = 0.137 | 0.386
x1 = 0.14 | 0.391
x1 = 0.143 | 0.396
x1 = 0.146 | 0.401
x1 = 0.149 | 0.406
x1 = 0.152 | 0.411
x1 = 0.155 | 0.415
x1 = 0.159 | 0.421
x1 = 0.162 | 0.426
x1 = 0.166 | 0.431
x1 = 0.17 | 0.437
x1 = 0.174 | 0.442
x1 = 0.178 | 0.448
x1 = 0.183 | 0.454
x1 = 0.188 | 0.46
x1 = 0.193 | 0.466
x1 = 0.198 | 0.472
x1 = 0.204 | 0.479
x1 = 0.209 | 0.486
x1 = 0.216 | 0.494
x1 = 0.222 | 0.502
x1 = 0.23 | 0.51
x1 = 0.237 | 0.519
x1 = 0.242 | 0.527
x1 = 0.247 | 0.534
x1 = 0.253 | 0.542
x1 = 0.259 | 0.55
x1 = 0.264 | 0.557
x1 = 0.271 | 0.565
x1 = 0.277 | 0.572
x1 = 0.284 | 0.579
x1 = 0.291 | 0.586
x1 = 0.299 | 0.592
x1 = 0.307 | 0.598
x1 = 0.315 | 0.603
x1 = 0.324 | 0.608
x1 = 0.334 | 0.611
x1 = 0.344 | 0.614
x1 = 0.354 | 0.617
x1 = 0.365 | 0.619
x1 = 0.377 | 0.621
x1 = 0.39 | 0.622
x1 = 0.404 | 0.622
x1 = 0.419 | 0.621
x1 = 0.435 | 0.619
x1 = 0.452 | 0.614
x1 = 0.47 | 0.608
x1 = 0.49 | 0.601
x1 = 0.499 | 0.597
x1 = 0.507 | 0.593
x1 = 0.517 | 0.588
x1 = 0.526 | 0.583
x1 = 0.536 | 0.577
x1 = 0.546 | 0.57
x1 = 0.556 | 0.563
x1 = 0.567 | 0.555
x1 = 0.579 | 0.546
x1 = 0.591 | 0.537
x1 = 0.603 | 0.526
x1 = 0.616 | 0.515
x1 = 0.629 | 0.503
x1 = 0.643 | 0.489
x1 = 0.658 | 0.475
x1 = 0.673 | 0.458
x1 = 0.689 | 0.441
x1 = 0.706 | 0.422
x1 = 0.724 | 0.401
x1 = 0.743 | 0.379
x1 = 0.762 | 0.354
x1 = 0.783 | 0.327
x1 = 0.805 | 0.297
x1 = 0.828 | 0.266
x1 = 0.852 | 0.23
x1 = 0.878 | 0.193
x1 = 0.906 | 0.15
x1 = 0.935 | 0.106
x1 = 0.966 | 0.0557
